Data taken from patent publication US4442090A, “Absorption-promoting compounds, compositions thereof with pharmaceuticals and/or bases for rectal administration and method of use” (Kyoto Yakuhin Kogyo Kabushiki Kaisha, priority 1980, dated 1984).
“And” between values parts separate entries of the source, which are not always exact repeats. Identical values can stand only once. Blank lines part the entries; values can stand above or below the compound they belong to.

Key:
[1] = Urinary excretions of β-lactam antibiotics after rectal suppository (rabbit); format: in vivo; conditions: Compound (I) 5%, Witepsol H-15
Procedure: The absorption into the circulation through the rectum of the rectal suppositories thus prepared was determined by measuring urinary excretion of the pharmacologically-active substance.
Thus, Sarcina lutea and Bacillus subtilis were used as assay organisms for penicillins and cephalosporins, respectively, and the assays were performed by the paper disk method (cultivation at 37° C. for from 15 to 20 hours).

[2] = Urinary excretions of AB-PC after administration of AB-PC rectal suppository (human); format: in vivo; conditions: AB-PC 125 mg (potency); for Urinary excretions of AB-PC (%) (0-6 hr.): Witepsol H-15, % of dose; for Urinary excretions (%) 0-2 (hr.) / Urinary excretions (%) 2-4 (hr.) / Urinary excretions (%) 4-6 (hr.) / Urinary excretions (%) Total (0-6 hr.): Compound (I) 10%, Witepsol H-15, Table 3
Procedure: The thus-obtained suppositories were administered to healthy adult male humans from the anus, and the urinary excretions of AB-PC were determined.

[3] = Blood glucose level after rectal insulin administration (rabbit); format: in vivo; conditions: rectal suppository, Insulin 6 I. U., Compound (I) 5%; for Blood glucose level 0 hr.: Witepsol H-15, baseline, level at hour 0 considered 100%; for Blood glucose level 0.5 hr. / Blood glucose level 1.0 hr. / Blood glucose level 2.0 hr. / Blood glucose level […]. / Blood glucose level 0.75 hr.: Witepsol H-15, relative to hour 0 = 100%
Source text: To measure glucose levels, blood samples were taken from the auricular vein at timed intervals and assayed by the glucose oxidase method.
The urinary excretion values in Tables 1 to 5 are percentages based on the dose administered. The blood glucose levels in Table 6 are relative blood glucose levels when the blood glucose level at hour 0 is considered to be 100%.

[4] = Urinary excretions of aminoglycoside antibiotics after rectal suppository (rabbit); conditions: Compound (I) 5%, Witepsol H-15
Procedure: The thus-obtained suppositories were administered to rabbits and the urinary excretions of the pharmacologically-active substance were determined.
(§1) Each rectal suppository was administered to a depth of 2 cm from the anus of a rabbit fasted 24 hours.
(§2) To measure the urinary excretions, urine samples were collected after administration at timed intervals, diluted and assayed by the biological assay procedure.
Thus, Bacillus subtilis was used as assay organism and the assays were performed by the cylinder plate method (cultivation at 37° C. for 15 to 20 hours).

[5] = Urinary excretions of peptide drugs after rectal suppository (rabbit); conditions: Colistin Sodium Methanesulfonate 150,000 IU, Compound (I) 5%, Witepsol H-15
Procedure: The thus-obtained suppositories were administered to rabbits from the anus, and the urinary excretions of the pharmacologically-active substance were determined.
as §1, §2
Thus, Escherichia coli was used as assay organism and the assays were performed by the cylinder plate method (cultivation at 37° C. for 15 to 20 hours).

[6] = Kanamycin sulfate 125 mg (potency)
[7] = Fortimicin sulfate 125 mg (potency)
[8] = Gentamicin sulfate 125 mg (potency)
[9] = Dibekacin sulfate 125 mg (potency)

Structure (SMILES): CCCCOc1ccc(C(=O)O)cc1 [Compound 3-Na, p-Butoxybenzoic acid]
Urinary excretions (%) 0-2 hr. ([1]; Cefmetazole 125 mg (potency)): 45.0%
Urinary excretions (%) 2-4 hr. ([1]; Cefmetazole 125 mg (potency)): 20.0%
Urinary excretions (%) 4-6 hr. ([1]; Cefmetazole 125 mg (potency)): 1.5%
Urinary excretions (%) Total (0-6 hr.) ([1]; Cefmetazole 125 mg (potency)): 66.5%
Urinary excretions (%) 0-2 hr. ([1]; FK-749 125 mg (potency)): 41.6%
Urinary excretions (%) 2-4 hr. ([1]; FK-749 125 mg (potency)): 19.2%
Urinary excretions (%) 4-6 hr. ([1]; FK-749 125 mg (potency)): 3.0%
Urinary excretions (%) Total (0-6 hr.) ([1]; FK-749 125 mg (potency)): 63.8%
Urinary excretions of AB-PC (%) (0-6 hr.) ([2]; added compound 10%): 20.9%
Blood glucose level 0 hr. [3]: 100%
Blood glucose level 0.5 hr. [3]: 60.0%
Blood glucose level 1.0 hr. [3]: 50.5%
Blood glucose level 2.0 hr. [3]: 103.3%
Blood glucose level […]. [3]: 79.5%
Urinary excretions (%) 0-2 hr. [4, 6]: 45.1%
Urinary excretions (%) 4-6 hr. [4, 6]: 2.6%
Urinary excretions (%) Total (0-6 hr.) [4, 6]: 59.8%

Urinary excretions (%) 0-2 (hr.) [2]: 24.0%
Urinary excretions (%) 2-4 (hr.) [2]: 3.0%
Urinary excretions (%) 4-6 (hr.) [2]: 1.2%
Urinary excretions (%) Total (0-6 hr.) [2]: 28.2%
Urinary excretions (%) 0-2 hr. [5]: 21.2% and 18.5%
Urinary excretions (%) 2-4 hr. [5]: 10.0% and 8.0%
Urinary excretions (%) 4-6 hr. [5]: 1.2% and 0.8%
Urinary excretions (%) Total (0-6 hr.) [5]: 32.4% and 27.3%
Urinary excretions (%) 0-2 hr. [4, 7]: 46.0%
Urinary excretions (%) 2-4 hr. [4, 7]: 8.0%
Urinary excretions (%) 4-6 hr. [4, 7]: 2.0%
Urinary excretions (%) Total (0-6 hr.) [4, 7]: 56.0%
Urinary excretions (%) 0-2 hr. [4, 8]: 45.0%
Urinary excretions (%) 2-4 hr. [4, 8]: 6.0%
Urinary excretions (%) 4-6 hr. [4, 8]: 1.5%
Urinary excretions (%) Total (0-6 hr.) [4, 8]: 52.5%
Structure (SMILES): CCCCCCCC(=O)N[C@@H](Cc1ccccc1)C(=O)O [Compound 23-Na, N--Capryloyl-L-phenylalanine]
Blood glucose level 0 hr. [3]: 100%
Blood glucose level 0.5 hr. [3]: 59.0%
Blood glucose level 2.0 hr. [3]: 103.0%
Blood glucose level […]. [3]: 69.5%

Urinary excretions (%) 0-2 hr. ([1]; Cefazolin 125 mg (potency)): 41.5%
Urinary excretions (%) 2-4 hr. ([1]; Cefazolin 125 mg (potency)): 16.9%
Urinary excretions (%) 4-6 hr. ([1]; Cefazolin 125 mg (potency)): 3.5%
Urinary excretions (%) Total (0-6 hr.) ([1]; Cefazolin 125 mg (potency)): 61.9%
Urinary excretions of AB-PC (%) (0-6 hr.) ([2]; added compound 10%): 25.6%
Urinary excretions (%) 0-2 hr. [5]: 20.5%
Urinary excretions (%) 2-4 hr. [5]: 9.2%
Urinary excretions (%) 4-6 hr. [5]: 1.8%
Urinary excretions (%) Total (0-6 hr.) [5]: 31.5%
Urinary excretions (%) 0-2 hr. [4, 8]: 41.2%
Urinary excretions (%) 2-4 hr. [4, 8]: 9.9%
Urinary excretions (%) 4-6 hr. [4, 8]: 3.1%
Urinary excretions (%) Total (0-6 hr.) [4, 8]: 53.2%
Structure (SMILES): O=C(O)CCCCCCCCCCC(=O)O [Compound 2-Na, 1,10-Decamethylenedicarboxylic acid]
Blood glucose level 0 hr. [3]: 100%
Blood glucose level 0.5 hr. [3]: 57.0%
Blood glucose level 0.75 hr. [3]: 50.5%
Blood glucose level 2.0 hr. [3]: 98.5%
Blood glucose level […]. [3]: 68.5%

Urinary excretions (%) 0-2 hr. ([1]; Cefsulodin 125 mg (potency)): 41.1%
Urinary excretions (%) 2-4 hr. ([1]; Cefsulodin 125 mg (potency)): 8.2%
Urinary excretions (%) 4-6 hr. ([1]; Cefsulodin 125 mg (potency)): 0.5%
Urinary excretions (%) Total (0-6 hr.) ([1]; Cefsulodin 125 mg (potency)): 49.8%
Urinary excretions (%) 0-2 hr. ([1]; Sulbenicillin 125 mg (potency)): 40.0%
Urinary excretions (%) 2-4 hr. ([1]; Sulbenicillin 125 mg (potency)): 5.1%
Urinary excretions (%) 4-6 hr. ([1]; Sulbenicillin 125 mg (potency)): 1.0%
Urinary excretions (%) Total (0-6 hr.) ([1]; Sulbenicillin 125 mg (potency)): 46.2%
Urinary excretions (%) 0-2 (hr.) [2]: 26.1%
Urinary excretions (%) 2-4 (hr.) [2]: 3.0%
Urinary excretions (%) 4-6 (hr.) [2]: 0.9%
Urinary excretions (%) Total (0-6 hr.) [2]: 30.0%
Structure (SMILES): CCCCCCCCCCCCCC(=O)N[C@H](C(=O)O)[C@@H](C)O [Compound 26-Na, N--Myristoyl-L-threonine]

Urinary excretions (%) 0-2 hr. ([1]; SCE-1365 125 mg (potency)): 45.0%
Urinary excretions (%) 2-4 hr. ([1]; SCE-1365 125 mg (potency)): 18.2%
Urinary excretions (%) 4-6 hr. ([1]; SCE-1365 125 mg (potency)): 1.8%
Urinary excretions (%) Total (0-6 hr.) ([1]; SCE-1365 125 mg (potency)): 65.0%
Urinary excretions of AB-PC (%) (0-6 hr.) ([2]; added compound 10%): 21.2%
Structure (SMILES): CCCCCCOc1ccc(C(=O)O)cc1 [Compound 6-Na, p-Hexyloxybenzoic acid]

Urinary excretions (%) 0-2 hr. ([1]; 6059-S 125 mg (potency)): 47.2%
Urinary excretions (%) 2-4 hr. ([1]; 6059-S 125 mg (potency)): 8.6%
Urinary excretions (%) 4-6 hr. ([1]; 6059-S 125 mg (potency)): 2.0%
Urinary excretions (%) Total (0-6 hr.) ([1]; 6059-S 125 mg (potency)): 57.8%
Structure (SMILES): CCCC(=O)NC(C(=O)O)c1ccccc1 (racemic) [Compound 29-Na, N--Butyryl-DL-phenylglycine]
Blood glucose level 0 hr. [3]: 100%
Blood glucose level 0.5 hr. [3]: 60.0%
Blood glucose level 0.75 hr. [3]: 50.6%
Blood glucose level 1.0 hr. [3]: 55.0%
Blood glucose level 2.0 hr. [3]: 111.3%
Blood glucose level […]. [3]: 81.2%

Urinary excretions (%) 0-2 hr. ([1]; Cephalothin 125 mg (potency)): 20.5%
Urinary excretions (%) 2-4 hr. ([1]; Cephalothin 125 mg (potency)): 3.0%
Urinary excretions (%) 4-6 hr. ([1]; Cephalothin 125 mg (potency)): 0.2%
Urinary excretions (%) Total (0-6 hr.) ([1]; Cephalothin 125 mg (potency)): 23.7%
Urinary excretions of AB-PC (%) (0-6 hr.) ([2]; added compound 10%): 15.2%
Structure (SMILES): O=C(O)CCCCCCCCCC(=O)O [Compound 1-Na, 1,9-Nonamethylendicarboxylic acid]

Urinary excretions (%) 0-2 hr. ([1]; Cefotiam 125 mg (potency)): 40.0%
Urinary excretions (%) 2-4 hr. ([1]; Cefotiam 125 mg (potency)): 8.0%
Urinary excretions (%) 4-6 hr. ([1]; Cefotiam 125 mg (potency)): 2.1%
Urinary excretions (%) Total (0-6 hr.) ([1]; Cefotiam 125 mg (potency)): 60.1%
Urinary excretions of AB-PC (%) (0-6 hr.) ([2]; Compound (I) 1%): 30.8%
Urinary excretions (%) 0-2 hr. [4, 9]: 41.1%
Urinary excretions (%) 2-4 hr. [4, 9]: 8.8%
Urinary excretions (%) 4-6 hr. [4, 9]: 1.1%
Urinary excretions (%) Total (0-6 hr.) [4, 9]: 51.0%
Structure (SMILES): O=C(O)CCCCCCCCCCCC(=O)O [Compound 5-Na, 1,11-Undecamethylene dicarboxylic acid]
Blood glucose level 0 hr. [3]: 100%
Blood glucose level 0.5 hr. [3]: 60.0%
Blood glucose level 0.75 hr. [3]: 51.7%
Blood glucose level 1.0 hr. [3]: 55.2%
Blood glucose level 2.0 hr. [3]: 110.3%
Blood glucose level […]. [3]: 80.5%
